Reference: PubChem BioAssay AID2060893 (Molecular Pharmacology Branch, DTP, NCI, 2025)
Values joined by “and” are separate entries in the source; they are usually repeats but may differ in a detail not shown here. Equal values may be shown once.

Tested on: K86415-001-R-J1-PDC complex spheroids, viability
Test: Anticancer human tumor K86415-001-R-J1-PDC patient-derived lung adenocarcinoma cell line growth inhibition [RAS]
Settings: for viability, T/C: stronger effect = lower value; active means viability on the fitted dose curve at most 10% of control; inactive means the rest
In short: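 Tumour cells grown as complex spheroids with HUVEC endothelial cells and mesenchymal stem cells, treated with RAS pathway inhibitor combinations. Each agent spans half-log steps from near clinical Cmax, or 10 microM where Cmax is unknown.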
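Further: spheroids exposed to agents for seven days before readout.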

NC1c2ccccc2OC12CCN(c1cnc3c(N4CCCc5ncccc54)n[nH]c3n1)CC2 (centres undefined)
< 31.6 nM: IC50 (curve of compound)
inactive: viability, T/C (compound 0.0316 µM) 46.3% [middle of 4 runs] | viability, T/C (compound 0.1 µM) 29.9% [middle of 4 runs] | viability, T/C (compound 0.316 µM) 22.7% [middle of 4 runs] | viability, T/C (compound 1 µM) 19.7% and 20.6% and 16.5% | viability, T/C (compound 3.16 µM) 21% [middle of 4 runs] | viability, T/C (compound 10 µM) 23.1% [middle of 4 runs]

O=C(c1ccc(F)c(F)c1Nc1ccc(I)cc1F)N1CC(O)([C@@H]2CCCCN2)C1 + C=CC(=O)N1CCN(c2nc(OCC3CCCN3C)nc3c(F)c(-c4nc(N)cc(C)c4C(F)(F)F)c(Cl)cc23)C(C)C1
inactive: viability, T/C (second compound 0.00316 µM, first compound 0.00316 µM) 18.7% | viability, T/C (second compound 0.00316 µM, first compound 0.01 µM) 15.5% | viability, T/C (second compound 0.00316 µM, first compound 0.0316 µM) 11.7% | viability, T/C (second compound 0.01 µM, first compound 0.00316 µM) 10.7% | viability, T/C (second compound 0.0316 µM, first compound 0.00316 µM) 10.5% | viability, T/C (second compound 1 µM, first compound 0.00316 µM) 10%
active: viability, T/C (second compound 0.00316 µM, first compound 0.1 µM) 11.2% | viability, T/C (second compound 0.00316 µM, first compound 0.316 µM) 6.3% | viability, T/C (second compound 0.00316 µM, first compound 1 µM) 3.59% | viability, T/C (second compound 0.01 µM, first compound 0.01 µM) 9.82% | viability, T/C (second compound 0.01 µM, first compound 0.0316 µM) 7.43% | viability, T/C (second compound 0.01 µM, first compound 0.1 µM) 7.21% | viability, T/C (second compound 0.01 µM, first compound 0.316 µM) 5.24% | viability, T/C (second compound 0.01 µM, first compound 1 µM) 2.8% | viability, T/C (second compound 0.0316 µM, first compound 0.01 µM) 8.28% | viability, T/C (second compound 0.0316 µM, first compound 0.0316 µM) 7.31% | viability, T/C (second compound 0.0316 µM, first compound 0.1 µM) 5.71% | viability, T/C (second compound 0.0316 µM, first compound 0.316 µM) 6.7% | viability, T/C (second compound 0.0316 µM, first compound 1 µM) 2.39% | viability, T/C (second compound 0.1 µM, first compound 0.00316 µM) 9.48% | viability, T/C (second compound 0.1 µM, first compound 0.01 µM) 8.63% | viability, T/C (second compound 0.1 µM, first compound 0.0316 µM) 6.77% | viability, T/C (second compound 0.1 µM, first compound 0.1 µM) 5.29% | viability, T/C (second compound 0.1 µM, first compound 0.316 µM) 3.4% | viability, T/C (second compound 0.1 µM, first compound 1 µM) 2.5% | viability, T/C (second compound 0.316 µM, first compound 0.00316 µM) 9.04% | viability, T/C (second compound 0.316 µM, first compound 0.01 µM) 7.51% | viability, T/C (second compound 0.316 µM, first compound 0.0316 µM) 6.81% | viability, T/C (second compound 0.316 µM, first compound 0.1 µM) 5.26% | viability, T/C (second compound 0.316 µM, first compound 0.316 µM) 5.12% | viability, T/C (second compound 0.316 µM, first compound 1 µM) 1.9% | viability, T/C (second compound 1 µM, first compound 0.01 µM) 8.81% | viability, T/C (second compound 1 µM, first compound 0.0316 µM) 8.35% | viability, T/C (second compound 1 µM, first compound 0.1 µM) 5.6% | viability, T/C (second compound 1 µM, first compound 0.316 µM) 4.91% | viability, T/C (second compound 1 µM, first compound 1 µM) 2.61%
< 3.16 nM: IC50 (curve of first compound, second compound 0.00316 µM) | IC50 (curve of first compound, second compound 0.01 µM) | IC50 (curve of first compound, second compound 0.0316 µM) | IC50 (curve of first compound, second compound 0.1 µM) | IC50 (curve of first compound, second compound 0.316 µM) | IC50 (curve of first compound, second compound 1 µM)
